Experimental data from PMC11763059, “GENI as an AMPK Activator Binds α and γ Subunits and Improves the Memory Dysfunction of Alzheimer’s Disease Mouse Models via Autophagy and Neuroprotection” (Antioxidants, 2025).

Experiments:
[1] = system: natural aging AD mice; assay: Behaviour tests in naturally aged mice with AD; type: in vivo
Description: Each group had 10 mice. GENI was dissolved in ultrapure water and administered by gavage, whereas Dor was dissolved in normal saline. The pH was adjusted to pH 5 with 0.1 M hydrochloric acid to the clarified solution and administered by intraperitoneal injection. The dosing experiment also lasted 10 weeks. Animal behavioral experiments and sampling at the end of the animal experiment were performed as described above.
The Y-maze is mainly used to study the spatial working memory ability of rodents. The Y-maze consisted of three equal-length arms (50 cm × 18 cm × 35 cm), and the angle between each two arms was 120 degrees. The mice were placed at the end of any arm of the Y-maze and allowed to explore freely for 8 min. The behavioral changes including the total number of entries and alternation (successively entering all three arms of the Y-maze once in turn) were recorded. Percentage altercation = alternation/(entries-2) × 100%. The Y-maze could effectively reflect the ability of animals to recognize and remember novel environments.
NOR was used to detect memory in rodents. We prepared a 40 × 40 × 40 cm square box, camera equipment, and behavioral analysis software. We chose three objects A, B, and C, where objects A and B were exactly the same, and object C was very different from objects A and B. After the start of the experiment, the mice were allowed to acclimate freely in the experimental apparatus for 10 min. Objects A and B were placed into the box, and the mice were allowed to explore for 5 min. We then recorded the exploration time and times. After 1 h, A and C or B and C were placed into the box. After letting the mice explore for 5 min, we recorded the exploration time of the original object and the new object. Discrimination index = exploration time of new objects/total exploration time × 100%.
The MWM installation consisted of a circular pool (120 cm in diameter and 50 cm in height), camera equipment, and a computer analysis system. In the first stage, the platform position was fixed, and mice were placed into the pool from any three of the four origins on the pool facing away from the pool wall. The time when it took for the mouse to find the platform within 120 s, called escape latency, was recorded. The training period lasted 4 days. The escape latency of the mice was recorded daily, and the average value was used as an index to evaluate the ability of learning and memory. On the 5th day, the platform was evacuated by the experimenter. The mice were placed against the platform into the water from any water entry point, and they were allowed to swim freely for 60 s. We then recorded the number of times that they crossed the platform.

[2] = system: PC12 cells; assay: ROS assay (DCFH-DA) in PC12 cells; type: cell-based; conditions: GENI 1, 3 and 10 μM 24 h, 0.8 mM H2O2 1 h
Description: To determine ROS levels in PC12 cells, we seeded 5 × 10^4 PC12 cells in each well of a 24-well plate. Cells were treated with RES (10 μM) or GENI (1, 3, and 10 μM) for 24 h, followed by 0.8 mM H2O2 for 1 h. DCFH-DA (2,7-dichlorodihydrofluorescein diacetate, final concentration, 10 μM) was then added to each well and incubated for 30 min. Cells were washed with PBS to remove extracellular DCFH-DA, and intercellular ROS was detected by using a SpectraMax M3 multimode microplate reader (Molecular Devices Corporation, San Jose, CA, USA) at an excitation wavelength of 488 nm and an emission wavelength of 525 nm. Meanwhile, DCF in PC12 cells was observed using a fluorescence microscope (HCS, Thermo Fisher, Science, Waltham, MA, USA). To detect malondialdehyde (MDA) content and total SOD enzymatic activities in PC12 cells, we seeded 2 × 10^6 PC12 cells in 60 mm dishes containing 5 mL of DMEM and cultured the cells for 24 h. PC12 cells were treated with RES (10 μM) or GENI (3 or 10 μM) for 24 h and then treated with 0.8 mM H2O2 for 1 h to determine the MDA content and total superoxide dismutase (SOD) activities. Cells were lysed and centrifuged. […] MDA quantification and total SOD activities were determined using MDA and SOD enzyme activity assay kits (Nanjing Jiancheng Bioengineering Institute, Nanjing, China) following the manufacturer’s instructions.

[3] = biological target: T1, AMPK-s4 (γ subunit- K148A) (Rattus norvegicus, UniProt P54645+P80385, K148A); assay: SPR analysis, AMPK mutant s4; type: binding
T1 construct: His (N); made in house
Description: Mammalian AMPK subunits (His-α1, β1, and γ1) were cloned into a pET-3d vector, and protein expression and purification were similar to the literature.
SPR analysis was performed with a Biacore T200 instrument (GE Healthcare). Firstly, the purred His-tagged AMPK containing α1β1γ1 protein was captured onto an activated carboxymethylated 5 (CM5) chip using amine coupling to levels ranging from 4000 RU to 6000 RU. Secondly, GENI was dissolved in PBS-P buffer solution (0.05% (v/v) Tween 20 and PBS), and the concentration of GENI was 64 μM. Thirdly, the solution of GENI was diluted to 32 μM, 16 μM, 8 μM, 4 μM, 2 μM, 1 μM and 0.5 μM with PBS-P buffer solution. The sample was filtered by pumping through a […] membrane. A gradient concentration of GENI was injected at a flow rate of 30 μL/min in a running buffer (0.05% (v/v) Tween 20 and PBS). The data were analyzed with Biacore evaluation software (T200 version 2.0) and fitted to the 1:1 Langmuir binding model, and the kinetic parameters were derived.
The non-covalent interaction between drugs and proteins is an important way to exert drug efficacy, and its mode of action and binding affinity usually determine the utilization and biological activity of drugs. AMPK is a heterotrimer complex consisting of an α subunit containing the kinase domain and two regulatory subunits (β- and γ-). […]

T1 sequence (P54645 13-559 limits assumed): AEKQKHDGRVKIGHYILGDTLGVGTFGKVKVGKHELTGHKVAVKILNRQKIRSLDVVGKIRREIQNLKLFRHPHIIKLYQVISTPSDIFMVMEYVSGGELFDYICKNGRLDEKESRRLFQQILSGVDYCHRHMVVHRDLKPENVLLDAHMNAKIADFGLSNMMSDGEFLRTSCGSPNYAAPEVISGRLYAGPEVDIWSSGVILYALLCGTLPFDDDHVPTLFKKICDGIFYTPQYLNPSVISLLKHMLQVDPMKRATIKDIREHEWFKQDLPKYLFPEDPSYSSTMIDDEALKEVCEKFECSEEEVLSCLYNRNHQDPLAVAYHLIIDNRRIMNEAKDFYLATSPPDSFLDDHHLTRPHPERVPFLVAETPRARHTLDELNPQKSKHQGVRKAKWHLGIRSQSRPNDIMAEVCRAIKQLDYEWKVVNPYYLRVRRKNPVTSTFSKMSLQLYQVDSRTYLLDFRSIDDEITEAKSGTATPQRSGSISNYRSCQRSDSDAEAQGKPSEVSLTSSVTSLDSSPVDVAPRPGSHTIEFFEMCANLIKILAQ
T1 sequence (P80386 whole entry partner): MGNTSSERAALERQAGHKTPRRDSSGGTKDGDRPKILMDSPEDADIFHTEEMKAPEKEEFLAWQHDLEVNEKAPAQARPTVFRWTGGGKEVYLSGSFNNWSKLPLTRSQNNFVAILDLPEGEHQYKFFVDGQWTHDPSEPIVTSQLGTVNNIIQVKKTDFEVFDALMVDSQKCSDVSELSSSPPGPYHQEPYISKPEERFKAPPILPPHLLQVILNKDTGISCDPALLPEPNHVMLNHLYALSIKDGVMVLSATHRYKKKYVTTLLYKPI
T1 sequence (P80385 whole entry K148A): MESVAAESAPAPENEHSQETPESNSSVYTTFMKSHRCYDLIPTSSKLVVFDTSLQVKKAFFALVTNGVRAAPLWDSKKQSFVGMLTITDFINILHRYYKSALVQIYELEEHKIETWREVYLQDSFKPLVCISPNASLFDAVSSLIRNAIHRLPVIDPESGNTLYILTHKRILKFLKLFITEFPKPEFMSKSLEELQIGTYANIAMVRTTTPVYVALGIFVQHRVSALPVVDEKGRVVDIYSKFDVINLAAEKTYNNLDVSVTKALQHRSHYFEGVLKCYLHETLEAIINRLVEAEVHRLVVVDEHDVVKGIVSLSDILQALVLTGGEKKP

`CC(C)CCOC(=O)C1=CO[C@@H](O[C@@H]2O[C@H](CO)[C@@H](O)[C@H](O)[C@H]2O)C2C(CO)=CCC12` (stereo partly drawn) [GENI, Geniposidic 4-isoamyl ester] was tested, and the “escape latency, first 4 days of the training phase, water maze test” value ([1]; GENI 25 mg/kg) was “significantly reduce”, the “number of crossing platforms, fifth day, water maze test” value ([1]; GENI 25 mg/kg) was “increase” and the “cognitive function (alternating arm entry rate, novel object recognition index) in Y maze and NOR tests” value ([1]; GENI 25 mg/kg intragastrically once a day) was “improvement”. The “H2O2-induced increase in ROS” value [2] was “significantly reduce”, the kon ([3]; SPR, association rate, read-out: Ka) was 4130 M⁻¹ s⁻¹ and the “dose-dependent relationship in SPR” value ([3]; point mutation of K148) was “dose-dependent relationship was lost”.
